Experimental data taken from ChEMBL document CHEMBL1201862, “PubChem BioAssay data set” (2004).
Where “and” joins values, the source holds several entries; their conditions need not be identical. Equal entries are not always repeated.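 Grown in 96-well plates, cells were treated for 48 hours with each compound at five concentrations. Insufficient inhibition: endpoint recorded as highest concentration tested. Abbreviation: GI50, concentration required for 50% inhibition of growth.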 Calls of active or inactive are those of the source. Cut-off read from the data, not from the text of the source: active = GI50 up to about 1.1 µM and inactive = higher.

Assays:
Experiment in all cases: inhibition of tumour cell growth, NCI panel, 48 h
[1] = tested on: HCT-15
[2] = tested on: SW-620
[3] = tested on: NCI/ADR-RES
[4] = tested on: NCI-H522
[5] = tested on: CCRF-CEM
[6] = tested on: SR
[7] = tested on: BT-549
[8] = tested on: HCT-116
[9] = tested on: UACC-62
[10] = tested on: SN12C
[11] = tested on: COLO 205
[12] = tested on: HOP-92
[13] = tested on: M14
[14] = tested on: MDA-MB-435
[15] = tested on: HCC 2998
[16] = tested on: SF-539
[17] = tested on: IGROV-1
[18] = tested on: SNB-19
[19] = tested on: PC-3
[20] = tested on: NCI-H460
[21] = tested on: U-251
[22] = tested on: T47D
[23] = tested on: OVCAR-4
[24] = tested on: OVCAR-8
[25] = tested on: MDA-MB-231
[26] = tested on: SK-MEL-2
[27] = tested on: NCI-H23
[28] = tested on: SK-OV-3
[29] = tested on: MCF7
[30] = tested on: MOLT-4
[31] = tested on: UACC-257
[32] = tested on: K562
[33] = tested on: A498
[34] = tested on: OVCAR-5
[35] = tested on: SF-268
[36] = tested on: SNB-75
[37] = tested on: RXF 393
[38] = tested on: SF-295
[39] = tested on: CAKI-1
[40] = tested on: UO-31
[41] = tested on: HT-29
[42] = tested on: OVCAR-3
[43] = tested on: TK-10
[44] = tested on: Hs-578T
[45] = tested on: DU-145
[46] = tested on: A549
[47] = tested on: LOX IMVI
[48] = tested on: HL-60
[49] = tested on: MDA-N
[50] = tested on: RPMI-8226
[51] = tested on: SK-MEL-28
[52] = tested on: SK-MEL-5
[53] = tested on: ACHN
[54] = tested on: NCI-H226
[55] = tested on: HOP-62

Structure (SMILES): CC(C)CC(C/C=C1/CC(CO)(COC(=O)C(C)(C)C)OC1=O)CC(C)C (stereo unspecified)
- GI50 [1]: 15 µM and 14.7 µM
- GI50 [2]: 4.37 µM (inactive) and 4.92 µM (inactive)
- GI50 [3]: 14 µM (inactive) and 17.4 µM (inactive)
- GI50 [4]: 14.1 µM (inactive) and 14.8 µM (inactive)
- GI50 [5]: 0.069 µM (active)
- GI50 [6]: 1.51 µM (inactive)
- GI50 [7]: 11.7 µM (inactive) and 15.5 µM (inactive)
- GI50 [8]: 15.9 µM (inactive) and 13.8 µM (inactive)
- GI50 [9]: 11.7 µM (inactive) and 15.2 µM (inactive)
- GI50 [10]: 8.49 µM (inactive)
- GI50 [11]: 0.136 µM (active)
- GI50 [12]: 0.893 µM (active)
- GI50 [13]: 12.1 µM (inactive) and 13.8 µM (inactive)
- GI50 [14]: 410 nM (active) and 818 nM (active)
- GI50 [15]: 1.28 µM (inactive) and 1.27 µM (inactive)
- GI50 [16]: 6.49 µM (inactive)
- GI50 [17]: 15.2 µM (inactive) and 12.1 µM (inactive)
- GI50 [18]: 10.5 µM (inactive) and 6.03 µM (inactive)
- GI50 [19]: 8.89 µM (inactive) and 8.83 µM (inactive)
- GI50 [20]: 278 nM (active) and 209 nM (active)
- GI50 [21]: 8.13 µM (inactive)
- GI50 [22]: 19.5 µM (inactive) and 11.7 µM (inactive)
- GI50 [23]: 16.2 µM (inactive) and 18.2 µM (inactive)
- GI50 [24]: 19 µM (inactive) and 17 µM (inactive)
- GI50 [25]: 3.03 µM (inactive)
- GI50 [26]: 16.4 µM (inactive) and 11.9 µM (inactive)
- GI50 [27]: 11.8 µM (inactive) and 10.9 µM (inactive)
- GI50 [28]: 19.3 µM (inactive)
- GI50 [29]: 19.7 µM (inactive) and 18.2 µM (inactive)
- GI50 [30]: 1.3 µM (inactive) and 2.14 µM (inactive)
- GI50 [31]: 16.4 µM (inactive) and 16.8 µM (inactive)
- GI50 [32]: 173 nM (active) and 123 nM (active)
- GI50 [33]: 10 µM (inactive) and 9.02 µM (inactive)
- GI50 [34]: 6.7 µM (inactive) and 11.8 µM (inactive)
- GI50 [35]: 10.8 µM (inactive) and 12.4 µM (inactive)
- GI50 [36]: 13.7 µM (inactive) and 11.1 µM (inactive)
- GI50 [37]: 16.1 µM (inactive) and 21.8 µM (inactive)

Structure (SMILES): COP(=O)(O)C(N)Cc1c[nH]c2ccccc12 (stereo unspecified)
- GI50 [1]: > 100 µM
- GI50 [38]: > 100 µM (inactive)
- GI50 [2]: > 100 µM (inactive)
- GI50 [3]: > 100 µM (inactive)
- GI50 [4]: > 100 µM (inactive)
- GI50 [5]: > 100 µM (inactive)
- GI50 [6]: > 100 µM (inactive)
- GI50 [8]: > 100 µM (inactive)
- GI50 [10]: > 100 µM (inactive)
- GI50 [11]: > 100 µM (inactive)
- GI50 [12]: > 100 µM (inactive)
- GI50 [13]: > 100 µM (inactive)
- GI50 [39]: > 100 µM (inactive)
- GI50 [14]: > 100 µM (inactive)
- GI50 [15]: > 100 µM (inactive)
- GI50 [40]: > 100 µM (inactive)
- GI50 [17]: > 100 µM (inactive)
- GI50 [18]: > 100 µM (inactive)
- GI50 [41]: > 100 µM (inactive)
- GI50 [42]: > 100 µM (inactive)
- GI50 [43]: > 100 µM (inactive)
- GI50 [19]: > 100 µM (inactive)
- GI50 [20]: > 100 µM (inactive)
- GI50 [44]: > 100 µM (inactive)
- GI50 [45]: > 100 µM (inactive)
- GI50 [46]: > 100 µM (inactive)
- GI50 [21]: > 100 µM (inactive)
- GI50 [47]: > 100 µM (inactive)
- GI50 [22]: > 100 µM (inactive)
- GI50 [23]: > 100 µM (inactive)
- GI50 [48]: > 10 µM (inactive)
- GI50 [24]: > 100 µM (inactive)
- GI50 [49]: > 100 µM (inactive)
- GI50 [25]: > 100 µM (inactive)
- GI50 [26]: > 100 µM (inactive)
- GI50 [50]: > 100 µM (inactive)
- GI50 [51]: > 100 µM (inactive)
- GI50 [27]: > 100 µM (inactive)
- GI50 [28]: > 100 µM (inactive)
- GI50 [29]: > 100 µM (inactive)
- GI50 [30]: > 100 µM (inactive)
- GI50 [31]: > 100 µM (inactive)
- GI50 [32]: > 100 µM (inactive)
- GI50 [33]: > 100 µM (inactive)
- GI50 [34]: > 100 µM (inactive)
- GI50 [52]: > 100 µM (inactive)
- GI50 [53]: > 100 µM (inactive)
- GI50 [54]: > 100 µM (inactive)
- GI50 [55]: > 100 µM (inactive)
